Test results from paper PMC11387443, “Determination of bisphosphonate properties in terms of bioavailability, bone affinity, and cytotoxicity” (Pharmacological Reports, 2024).
Entries after “also recorded” stand apart in the source; their conditions may differ.

Key:
[1] = set-up: method as in PMID 18056045; conditions: cited from earlier work
[2] = tested on: Lactobacillus paracasei PCM 3039; experiment: Bacterial cell wall hydrophobicity (Congo Red binding); assay type: cell-based; conditions: 0.2 mg mL^−1 BP, 24 h; Ctrl 39.7 ± 8.0%
Procedure: (§1) Lactobacillus paracasei PCM 3039 used in the experiments was purchased from the Polish Collection of Microorganisms (Wroclaw, Poland). The liquid cultures were composed of the minimal medium (10% solution of MRS Broth in Dulbecco’s Phosphate Buffered Saline (DPBS)), the inoculum, and a BP stock solution in water (initial concentration of BPs in each culture was 0.2 mg mL^−1). The bacterial inoculum was prepared from the broth cultures incubated overnight at 37 °C and washed twice with a sterile medium. The initial cell concentration in each culture was adjusted to 1–10^8 cfu mL^−1. The reference cultures without the addition of BPs (denoted as Ctrl) and the abiotic control samples with the addition of pure minimal medium instead of bacterial inoculum were carried out. All samples were incubated at 36 °C for 24 h with shaking (150 rpm). The effect of BPs on the properties of bacterial cells was also evaluated. The experiments performed include (i) modifications of the bacterial cell membrane permeability—the measurements were based on the Crystal Violet uptake by the cells, (ii) modifications of the bacterial cell wall hydrophobicity, based on the procedure described previously. Relative metabolic activity of cells treated with the compounds in question measured with the colorimetric test AlamarBlue® Cell Viability Assay.

[3] = tested on: Lactobacillus paracasei PCM 3039; experiment: Bacterial cell membrane permeability (Crystal Violet uptake); assay type: cell-based; conditions: 0.2 mg mL^−1 BP, 24 h; for Crystal Violet uptake (cell membrane permeability): Ctrl 33.4 ± 8.0%
Procedure: as §1

[4] = tested on: Lactobacillus paracasei PCM 3039; experiment: Relative metabolic activity (AlamarBlue Cell Viability Assay); assay type: cell-based; conditions: 0.2 mg mL^−1 BP, relative to control group set at 100%
Procedure: as §1

Caco-2 cell monolayer = tested on: Caco-2 cell monolayer; set-up: method as in PMID 26542347; conditions: cited from earlier work
[5] = set-up: method as in PMID 26542347; conditions: in vitro artificial intestinal membrane; cited from earlier work
[6] = Parallel artificial membrane permeability assay (PAMPA); assay type: in vitro ADME; conditions: 175 μM in PBS pH 7.4, 5 h; for PAMPA permeability, comparison in words: room temperature
Procedure: A parallel artificial membrane permeability assay (PAMPA) (Corning® Gentest™ Pre-coated PAMPA Plate System Gentest, USA) was prepared according to the recommended protocol. 96-well PAMPA plate was heated to room temperature for at least 30 min. Compound solutions were prepared in buffer (175 μM in PBS, pH 7.4). 300 μL of the BP solution was added to each donor plate well, and 200 μL of buffer (PBS, pH 7.4) was added to each acceptor plate. The filter plate (acceptor plate) was then placed on the receiver plate (donor plane) and the plate assembly was incubated at room temperature for 5 h. The compound amounts were measured by Multiskan152 SkyMicroplate Spectrophotometer (Thermo Fisher Scientific, Waltham, USA). The permeability of the BPs was calculated using the following formula (Eq. 1)1 Pe=-In[1-CA(t)/Cequilibrium]/A∗(1/VD+1/VA)∗t where Pe is the permeability (cm s^−1), Cequilibrium is [CD(t) × VD + CA(t) × VA]/(VD + VA), CD(t) indicates the compound concentration in donor well at time t (mM), CA(t) indicates the compound concentration in acceptor well at time t (mM), VD is the donor well volume (0.3 mL), VA is the acceptor well volume (0.2 mL), t is the incubation time (18000 s), and A is the effective filter area (0.3 cm^2).

[7] = Sorption of bisphosphonates on hydroxyapatite in SBF; assay type: physicochemical; conditions: 0.7 mM, 30 mg HA; for affinity for HA (sorption), comparison in words: 10 mL SBF, 1, 2 and 48 h
Procedure: The first step was to investigate the effect of concentration on the RSD sorption on HA. The sorption capacity was examined for 4 concentrations (0.2, 0.5, 0.7 and 1 mM). 30 mg (+ /− 0.1 mg) of HA was weighed into polypropylene tubes. Subsequently, 10 mL of Simulated Body Fluid (SBF) (Table 2) containing BPs was poured into the tubes and placed in a shaker for 1 h, 2 h, and 48 h. Sorption of BP compounds on HA was measured using a UV–VIS spectrophotometer after 5 min of centrifugation (speed 4000 rpm). The compound concentrations were measured by Multiskan152 Sky Microplate Spectrophotometer (Thermo Fisher Scientific, Waltham, MA, USA). Next, for one concentration (0.7 mM), sorption studies of all BPs were conducted in the same manner as indicated above for RSD. The measurements were conducted in the range of 220–400 nm. The quantitative assessment was performed based on the calibration curve method at the absorbance maximum for each BP (absorption properties of the tested compounds are summarized in Table 3).

[8] = set-up: method as in PMID 34277124; conditions: cited from earlier work
[9] = tested on: Lactobacillus paracasei PCM 3039; experiment: Growth curve of L. paracasei (OD600); assay type: cell-based; conditions: 0.2 mg mL^−1 BP, 24 h
Procedure: Lactobacillus paracasei PCM 3039 used in the experiments was purchased from the Polish Collection of Microorganisms (Wroclaw, Poland). The liquid cultures were composed of the minimal medium (10% solution of MRS Broth in Dulbecco’s Phosphate Buffered Saline (DPBS)), the inoculum, and a BP stock solution in water (initial concentration of BPs in each culture was 0.2 mg mL^−1). The bacterial inoculum was prepared from the broth cultures incubated overnight at 37 °C and washed twice with a sterile medium. The initial cell concentration in each culture was adjusted to 1–10^8 cfu mL^−1. The reference cultures without the addition of BPs (denoted as Ctrl) and the abiotic control samples with the addition of pure minimal medium instead of bacterial inoculum were carried out. All samples were incubated at 36 °C for 24 h with shaking (150 rpm). The growth of cells treated with BPs as well as control cells was monitored by measuring the optical density at the wavelength of 600 nm (OD600) as described by. The growth curve measurements were performed with a microplate reader Multiskan 152 Sky (Thermo Fisher Scientific, Waltham, MA, USA). 200 μL of the prepared bacterial cultures were transferred to the 96-well clear bottom sterile microplates wells. The plates were maintained at 37 °C with pulse shaking. The OD600 of each well was read every 10 min for 24 h.

[10] = set-up: method as in PMID 32387834; conditions: oral; cited from earlier work

Structure (SMILES) | Congo Red Binding (cell wall hydrophobicity) [2] [%] | Crystal Violet uptake (cell membrane permeability) [3] [%] | AlamarBlue Reduction (relative metabolic activity) [4] | affinity for HA (sorption), comparison in words [7] | change in membrane permeability in comparison with RSD [3] | other results
O=P(O)(O)C(Cl)(Cl)P(=O)(O)O [clodronate] | – | – | – | – | – | urinary excretion 24 h after the first dose [1]: 73%
O=P(O)(O)C(Nc1cccc(Cl)n1)P(=O)(O)O [BP9, (6-chloro-2-pyridinyl)amino-methylene-1,1-bisphosphonic acid] | 85.0 ± 2.4 | 61.9 ± 5.7 | 35.9 ± 16.7% | – | – | –
O=P(O)(O)C(O)(Cn1ccnc1)P(=O)(O)O [Zoledronate, zoledronic acid] | – | – | – | – | – | urinary excretion 24 h after the first dose [1]: 38%; apparent permeability coefficient Papp (Caco-2 cell monolayer): 2.72 ± 0.868 (× 10^−6) cm s^−1; permeability Pe [5]: Not detected
O=P(O)(O)C(Nc1cccnc1Cl)P(=O)(O)O [BP10] | 86.4 ± 1.7 | 60.6 ± 8.7 | – | – | – | –
O=P(O)(O)C(Nc1ccc(Cl)cn1)P(=O)(O)O [BP8, (5-chloro-2-pyridinyl)amino-methylene-1,1-bisphosphonic acid] | 82.1 ± 1.7 | – | – | stronger affinity for HA than RSD | – | drug concentration in the acceptor plate relative to RSD [6]: over twice as high as RSD; PAMPA permeability, comparison in words [6]: higher than twice as much as BP9 permeability; also recorded: highest permeability among all analyzed BPs
O=P(O)(O)C(Nc1ccccn1)P(=O)(O)O [BP1, 2-pyridinylaminomethylene-1,1-bisphosphonic acid] | – | – | approximately 154.0% | slightly higher affinity for HA than RSD | significant decrease | sorption and desorption on polymer-ceramic materials [8]: high sorption levels on polymer-ceramic materials, followed by extensive desorption
O=P(O)(O)C(Nc1cccc(O)n1)P(=O)(O)O [BP11, (6-hydroksy-2-pyridinyl)amino-methylene-1,1-bisphosphonic acid] | 35.2 ± 6.1 | 30.9 ± 6.4 | 60.4 ± 3.4% | highest sorption | significant decrease | PAMPA permeability, comparison in words [6]: highest permeability among all analyzed BPs
O=P(O)(O)C(Nc1ccc(I)cn1)P(=O)(O)O [BP6, (5-iodo-2-pyridinyl)amino-methylene-1,1-bisphosphonic acid] | – | – | – | slightly higher affinity for HA than RSD | – | –
Cc1cc(C)nc(NC(P(=O)(O)O)P(=O)(O)O)c1 [BP5, (4,6-dimethyl-2-pyridinyl)amino-methylene-1,1-bisphosphonic acid] | – | – | – | lower affinity | significant decrease | –
Cc1ccnc(NC(P(=O)(O)O)P(=O)(O)O)c1 [BP3, (4-methyl-2-pyridinyl)aminomethylene-1,1-bisphosphonic acid] | – | – | – | – | significant decrease | –
O=P(O)(O)C(Nc1ccc(Br)cn1)P(=O)(O)O [BP7, (5-bromo-2-pyridinyl)amino-methylene-1,1-bisphosphonic acid] | 45.0 ± 5.8 | 30.6 ± 6.0 | – | slightly higher affinity for HA than RSD | significant decrease | drug concentration in the acceptor plate relative to RSD [6]: over twice as high as RSD
Cc1ccc(NC(P(=O)(O)O)P(=O)(O)O)nc1 [BP4, (5-methyl-2-pyridinyl)aminomethylene-1,1-bisphosphonic acid] | 89.3 ± 3.5 | 62.7 ± 8.4 | approximately 154.0% | – | – | drug concentration in the acceptor plate relative to RSD [6]: over twice as high as RSD; PAMPA permeability, comparison in words [6]: higher permeability than the other two compounds
O=P(O)(O)C(Nc1nc2ccccc2s1)P(=O)(O)O [BP12, N-(1,3-benzothiazol-2-yl)amino-methylene-1,1-bisphosphonic acid] | – | – | – | lower affinity for HA compared to RSD and BP1 | – | sorption and desorption on polymer-ceramic materials [8]: high sorption levels on polymer-ceramic materials, followed by extensive desorption
O=P(O)(O)C(O)(Cc1cccnc1)P(=O)(O)O [RSD, Risedronate] | – | – | – | – | – | urinary excretion 24 h after the first dose [1]: 65%; sorption on HA ([7]; 10 mL SBF): approximately 50%; growth of L. paracasei (OD600 growth curve), in words [9]: initial fast cell growth was followed by a rapid decrease in cell density; bioavailability [10]: 0.62%
Cc1cccnc1NC(P(=O)(O)O)P(=O)(O)O [BP2, (3-methyl-2-pyridinyl)aminomethylene-1,1-bisphosphonic acid] | – | – | approximately 154.0% | lower affinity | – | sorption and desorption on polymer-ceramic materials [8]: high sorption levels on polymer-ceramic materials, followed by extensive desorption; drug concentration in the acceptor plate relative to RSD [6]: over twice as high as RSD; PAMPA permeability, comparison in words [6]: higher permeability than the other two compounds
